Reference: PubChem BioAssay (NCI)
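Step 1: Grow cells in 96-well plates. Step 2: Expose to compound for 48 hours at 5 concentrations. Step 3: Interpolate endpoints linearly; if unreached, use highest concentration. GI50 marks 50% less growth. At the TGI there is no net growth.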

How the values were obtained:
Assay in all cases: DTP human tumour cell line panel, 48 h
[1] = tested on: A498 renal
[2] = tested on: SNB-75 CNS
[3] = tested on: A549 NSCLC
[4] = tested on: OVCAR-8 ovarian
[5] = tested on: UO-31 renal
[6] = tested on: RPMI-8226 leukemia
[7] = tested on: RXF 393 renal
[8] = tested on: T-47D breast
[9] = tested on: UACC-62 melanoma
[10] = tested on: EKVX NSCLC

SMILES | GI50 [1] | TGI [1] | GI50 [2] | TGI [2] | GI50 [3] | TGI [3] | GI50 [4] | TGI [4] | GI50 [5] | TGI [5] | GI50 [6] | TGI [6] | GI50 [7] | TGI [7] | GI50 [8] | TGI [8] | GI50 [9] | TGI [9] | TGI [10] | GI50 [10]
COc1ccc(-c2cnnn2-c2nonc2-n2cccc2)cc1OC | 2.95 µM | 23 µM | 4.19 µM | 39.2 µM | 4.15 µM | > 100 µM | 5.29 µM | > 100 µM | 6.27 µM | > 100 µM | 4.85 µM | > 100 µM | 2.98 µM | 40.2 µM | 3.79 µM | > 100 µM | 5.42 µM | > 100 µM | – | –
CN(C)C(=S)/N=c1\ssc(=S)n1C | – | > 100 µM | – | > 100 µM | – | > 100 µM | – | > 100 µM | – | > 100 µM | – | > 100 µM | – | > 100 µM | – | – | – | > 100 µM | > 100 µM | –
C=C(CN1CCc2c([nH]c3ccccc23)C1)c1ccc(C(=O)Nc2ccccc2N)cc1 | – | – | – | – | 4.85 µM | 32 µM | 1.9 µM | 14.7 µM | 3.53 µM | 9.89 µM | 0.356 µM | 3.57 µM | 4.27 µM | 12.8 µM | 8.5 µM | 50 µM | 1.59 µM | 7.43 µM | 13.5 µM | 2.14 µM
CC1=Nc2ccccc2SC(c2c(Cl)cccc2Cl)C1 (stereo not drawn) | – | 3.74 µM | – | 5.67 µM | – | 4.43 µM | – | 0.588 µM | – | 3.09 µM | – | 3.09 µM | – | 2.69 µM | – | – | – | 2.52 µM | 3.82 µM | –
C[N+](C)(C)CC1CCCCC1=O (stereo not drawn) | – | – | – | 81.2 µM | – | > 100 µM | – | 41.1 µM | – | > 100 µM | – | 44.7 µM | – | 33.8 µM | – | – | – | 34 µM | 57.5 µM | –
N=c1c2ccccc2sc2nc3ccccc3n12 | – | > 100 µM | – | – | – | > 100 µM | – | > 100 µM | – | > 100 µM | – | – | – | > 100 µM | – | – | – | > 100 µM | > 100 µM | –
COc1ccc(-c2nc(-c3nc4cc(Cl)c(F)cc4[nH]3)c3ccccn23)cc1 | 2.31 µM | > 100 µM | 5.31 µM | > 100 µM | 4.04 µM | > 100 µM | 3.45 µM | > 100 µM | 2.62 µM | 35.7 µM | 3.02 µM | > 100 µM | 4.65 µM | > 100 µM | 3.54 µM | 33.1 µM | 6.05 µM | > 100 µM | – | –
Nc1c(C(=O)c2cccc(C#CCN3CCCCC3)c2)cnn1-c1ccc(F)cc1 | > 25 µM | > 25 µM | > 25 µM | > 25 µM | > 25 µM | > 25 µM | > 25 µM | > 25 µM | 16.2 µM | > 25 µM | > 17 µM | > 25 µM | 14 µM | > 25 µM | 11.3 µM | > 25 µM | > 25 µM | > 25 µM | – | –
COc1ccc(O)c(C(=O)CCC(=O)O)c1 | – | > 100 µM | – | > 100 µM | – | > 100 µM | – | > 100 µM | – | > 100 µM | – | > 100 µM | – | > 100 µM | – | – | – | > 100 µM | > 100 µM | –
CC(=O)c1ccc(NC(=O)C(=O)C(C(=O)/C=C/c2ccccc2)C2OC(=O)c3ccccc32)cc1 (stereo not drawn) | – | > 100 µM | – | > 100 µM | – | > 100 µM | – | > 100 µM | – | > 100 µM | – | > 100 µM | – | > 100 µM | – | – | – | > 100 µM | > 100 µM | –
O=C1c2ccccc2C(=O)C12CCc1ccccc12 | – | – | – | > 100 µM | – | > 100 µM | – | > 100 µM | – | > 100 µM | – | – | – | > 100 µM | – | – | – | > 100 µM | > 100 µM | –
COC(=O)c1cc(=O)nc2cc3cccccc3n12 | – | > 100 µM | – | > 100 µM | – | > 100 µM | – | > 100 µM | – | > 100 µM | – | > 100 µM | – | > 100 µM | – | – | – | > 100 µM | > 100 µM | –
COc1cc(C2=NN(C(C)=O)C(c3cc(OC)c(OC)c(OC)c3)C2)ccc1O (stereo not drawn) | 0.26 µM | 7.52 µM | 0.26 µM | > 100 µM | 0.579 µM | > 100 µM | 0.619 µM | > 100 µM | 0.809 µM | > 100 µM | 0.311 µM | 4.03 µM | – | – | – | – | 0.471 µM | > 100 µM | > 100 µM | 1.13 µM
CCC1=CCN(c2cc(C)ccn2)OC1c1ccccc1 (stereo not drawn) | – | – | – | > 100 µM | – | > 100 µM | – | > 100 µM | – | > 100 µM | – | 67.1 µM | – | 68 µM | – | – | – | > 100 µM | > 100 µM | –
CC(=O)OC(C(=O)[O][Sn]([CH3])([CH3])[CH3])c1ccccc1 (stereo not drawn) | > 100 µM | > 100 µM | > 100 µM | > 100 µM | > 100 µM | > 100 µM | > 100 µM | > 100 µM | > 100 µM | > 100 µM | > 100 µM | > 100 µM | – | 0.959 µM | – | – | > 100 µM | > 100 µM | > 100 µM | > 100 µM
CN/N=C(/c1nc2ccc([N+](=O)[O-])cc2[nH]c1=O)C(O)c1ccc(C(O)/C(=N\NC)c2nc3ccc([N+](=O)[O-])cc3[nH]c2=O)cc1 (stereo not drawn) | – | > 100 µM | – | > 100 µM | – | > 100 µM | – | > 100 µM | – | > 100 µM | – | > 100 µM | – | > 100 µM | – | – | – | > 100 µM | > 100 µM | –
CCCCCCC(O)CC[C@H]1CCC[C@@H](C)N1 (stereo partly drawn) | – | > 10 µM | – | > 31.6 µM | – | > 100 µM | – | < 10 µM | – | > 100 µM | – | > 100 µM | – | > 100 µM | – | – | – | > 100 µM | > 100 µM | –
CCOc1ccc(N=C2NC(=O)C(CC(=O)Nc3ccccc3[N+](=O)[O-])S2)cc1 (stereo not drawn) | – | > 100 µM | – | > 100 µM | – | > 100 µM | – | > 100 µM | – | > 100 µM | – | > 100 µM | – | > 100 µM | – | – | – | > 100 µM | > 100 µM | –
O=c1c2c(-c3ccccc3)c3ccccc3nc2cnn1-c1ccccc1 | – | > 100 µM | – | > 100 µM | – | > 100 µM | – | > 100 µM | – | > 100 µM | – | > 100 µM | – | > 100 µM | – | – | – | > 100 µM | > 100 µM | –
COc1ccc(/C=C2\CCC(CCN(C)C)(C3=CCCC3)C2=O)cc1 (stereo not drawn) | – | 34.8 µM | – | 55.2 µM | – | 42.9 µM | – | 34.9 µM | – | 28.2 µM | – | 48.7 µM | – | 22.7 µM | – | – | – | 30.3 µM | 39.9 µM | –
